The results in this text go back to patent US8106073B2, “Quinoline derivatives 057” (AstraZeneca AB, priority 2007, dated 2012).

For orientation: inhibition means the share of the control response that was lost under treatment. The low end stands for a weak effect, the high end for a strong effect. In general, bioavailability refers to the share of a dose that reaches the circulation, judged against a reference dose that is usually intravenous. Usually melting point stands for the temperature of the solid-liquid transition.

The structures appear in SMILES notation. Read-outs that look alike come from different tables or passages of the source.

In data set [1] the target is T1, P2X7 receptor (Homo sapiens, UniProt Q99572).
T1 construct: 200 μl of a suspension of THP-1 cells; endogenous in cells; host or cells: THP-1 cells
T1 sequence (Q99572 1-595): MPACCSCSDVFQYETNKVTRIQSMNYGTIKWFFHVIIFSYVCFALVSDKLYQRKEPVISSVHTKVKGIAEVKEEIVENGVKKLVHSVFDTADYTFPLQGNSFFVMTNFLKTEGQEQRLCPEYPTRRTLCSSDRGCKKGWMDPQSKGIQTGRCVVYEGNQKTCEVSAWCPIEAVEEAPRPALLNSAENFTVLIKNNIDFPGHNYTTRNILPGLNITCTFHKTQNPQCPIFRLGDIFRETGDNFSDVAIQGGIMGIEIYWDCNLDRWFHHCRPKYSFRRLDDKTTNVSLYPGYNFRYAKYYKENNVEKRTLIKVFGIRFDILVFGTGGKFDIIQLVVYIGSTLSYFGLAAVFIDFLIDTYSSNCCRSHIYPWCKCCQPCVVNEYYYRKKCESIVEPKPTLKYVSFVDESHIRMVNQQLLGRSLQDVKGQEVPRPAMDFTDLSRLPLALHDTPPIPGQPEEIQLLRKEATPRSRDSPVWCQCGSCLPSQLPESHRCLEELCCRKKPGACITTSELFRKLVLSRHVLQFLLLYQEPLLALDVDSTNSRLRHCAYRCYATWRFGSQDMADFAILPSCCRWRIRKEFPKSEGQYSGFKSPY
As to the kind of experiment: P2X7 assay (bbATP-induced ethidium bromide fluorescence in THP-1 cells). It is filed as cell-based. The text has this:
Certain compounds such as benzoylbenzoyl adenosine triphosphate (bbATP) are known to be agonists of the P2X7 receptor, effecting the formation of pores in the plasma membrane (Drug Development Research (1996), 37(3), p. 126). Consequently, when the receptor is activated using bbATP in the presence of ethidium bromide (a fluorescent DNA probe), an increase in the fluorescence of intracellular DNA-bound ethidium bromide is observed. The increase in fluorescence can be used as a measure of P2X7 receptor activation and therefore to quantify the effect of a compound on the P2X7 receptor.
In this manner, the compound of the invention was tested for antagonist activity at the P2X7 receptor. Thus, the test was performed in 96-well flat bottomed microtitre plates, the wells being filled with 250 μl of test solution comprising 200 μl of a suspension of THP-1 cells (2.5×10^6 cells/ml) containing 10^−4M ethidium bromide, 25 μl of a high potassium buffer solution containing 10^−5M bbATP, and 25 μl of the high potassium buffer solution containing concentrations of test compound typically from 30 μM-0.001 μM. The plate was covered with a plastic sheet and incubated at 37° C. for one hour. The plate was then read in a Perkin-Elmer fluorescent plate reader, excitation 520 nm, emission 595 nm, slit widths: Ex 15 nm, Em 20 nm. […]

The target in data set [2] is T2, hERG (Homo sapiens, UniProt Q12809).
T2 construct: expressed in transfected cells; host or cells: HEK (human embryonic kidney) cells, membranes
As to the kind of experiment: hERG binding protocol (radioligand competition, HEK cell membranes expressing hERG). Particulars: human, HEK cell membranes expressing hERG, pH 7.4; highest concentration tested. As to the method: (§1) The hERG assay was performed according to the procedure described in WO2005/037052. The affinity (pIC50) of compounds for the ion channel subunit encoded by the human ether-a-go-go-related gene (hERG) gene was determined by competition binding of radioligand 3,7-Bis[2-(4-nitro[3,5-^3H]phenyl)ethyl]-3,7-diazabicyclo[3.3.1]nonane to HEK (human embryonic kidney) cell membranes expressing hERG, in a filter wash format.
(§2) Membranes were incubated for 3 hours at room temperature with serial dilutions of the test compounds, radioligand 3,7-Bis[2-(4-nitro[3, 5-3H]phenyl)ethyl]-3,7-diazabicyclo[3.3.1]nonane at 1 nM final concentration, and assay buffer (10 mM HEPES, 130 mM NaCl, 5 mM KCl, 1 mM EGTA, 0.8 mM MgCl2, pH 7.4). The assay was conducted in a final volume of 200 μL, in the presence of 1% (v/v) dimethyl sulphoxide. Non-specific binding was determined by measuring the binding of 3,7-Bis[2-(4-nitro[3,5-^3H]phenyl)ethyl]-3,7-diazabicyclo[3.3.1]nonane in the presence of 10 μM astemizole. During this incubation GF/B filter plates were immersed in coating solution 0.3% (v/v) Polyethylenimine and 0.2% (w/v) BSA). Following incubation assay plates were harvested onto precoated GF/B filter plates using a Tomtec harvester.
(§3) The pIC50, defined as the negative logarithm of the concentration of compound required for 50% reduction in 3,7-Bis[2-(4-nitro[3,5-^3H]phenyl)ethyl]-3,7-diazabicyclo[3.3.1]nonane binding, was determined. A ‘less than’ FIGURE indicates <50% inhibition at the quoted concentration, this being the highest concentration tested.
(In general: The hERG channel carries a current that helps repolarise heart muscle cells.)

The target in data set [3] is T3, ion channel subunit encoded by the human ether-a-go-go-related gene (hERG) (Homo sapiens, UniProt Q12809).
T3 construct: expressed in transfected cells; host or cells: HEK (human embryonic kidney) cells, membranes
Described as above. Particulars: for P2X7:hERG Ratio: ratio of P2X7:hERG affinity. The protocol: as §1, §2, §3

A short description of data set [4]: Bioavailability - Rat PK. Particulars: male, Sprague Dawley, plasma, oral 5 mg/kg vs IV 3 mg/kg. It is filed as in vivo, male Sprague Dawley rats. As to the method:
Pharmacokinetic parameters and concepts are used in DMPK to describe the fate of a compound in the body. The distribution and excretion of a compound are reflected in the plasma concentration-time profile. By appropriate dosing, sampling and analysis key as parameters (clearance, volume, half-life, bioavailability etc.) can be determined.
Test compounds were typically dosed intravenously to the right lateral tail vein of male Sprague Dawley rats at a dose level of 3 mg/kg (1 ml/kg) in DMA:water (40:60 v/v). Rats were dosed orally at a dose level of 5 mg/kg (2 ml/kg) in 0.5% hydroxypropylmethylcellulose (HPMC, w/v)/0.1% Tween 80 (v/v) in water). […]
To determine the plasma levels of test compound, 50 μl of methanol was added to 50 μl of each of the test samples, whilst 40 μl of methanol was added to the 50 μl aliquots of control plasma containing 10 μl spikes of authentic standard used to create a calibration line and QCs. […] The resultant supernatants were analysed by HPLC-MSMS after an appropriate, selective and sensitive method had been created by optimizing both cone voltage and collision energy.
Pharmacokinetic parameters were derived from concentration-time using non-compartmental analysis in WinNonLin®. Bioavailability was calculated using the following equation F=AUCPO*DoseIV/AUCIV*DosePO.

Data set [5] deals with primary rat hepatocytes. As to the kind of experiment: In vitro phospholipidosis protocol (DHPE-TRITC accumulation). Type of data set: cell-based, Han Wistar rats. The protocol: Assessment of a compounds potential to induce phospholipidosis was determined by an in vitro fluorescent assay which reports the accumulation of phospholipids in primary rat hepatocytes. Hepatocytes were isolated from Han Wistar rats by a 2-stage collagenase digest method. The hepatocytes were then plated on collagen coated 96-well plates in William's E medium. The cells were left to adhere for 1 hour then the media was replaced with a solution of 250 μg.ml^−1 collagen in Hepatozyme cell culture medium.
Cells were then cultured for 48 hours with the medium being changed at 24 hours. At 48 hours post isolation the medium was changed to Hepatozyme supplemented with the fluorescent phospholipid N-(6-tetramethylrhodaminethiocarbamoyl)-1,2-dihexadecanoyl-sn-glycero-3-phosphoethanolamine (DHPE-TRITC) (5 μg.ml^−1). At this time, test compounds were added to the hepatocytes at a range of concentrations in a serial dilution with a final concentration of 0.4% dimethylsulfoxide (used as solvent for test compounds).
The cells were incubated for a further 24 hours and then fixed by addition of a phosphate buffered saline (PBS) solution containing the nuclear stain Hoechst 33342 (final concentration 2 μM) and paraformaldehyde solution (final concentration 4%). The plates were kept at room temperature for 30 minutes then washed three times in PBS solution.
Images of the hepatocytes were then acquired using an automated microscope platform (GE In Cell Analyser 3000). Image analysis algorithms were then used to assess cell viability and the accumulation of the DHPE-TRITC label within viable hepatocytes. The quantified accumulation observed with test compounds was then normalised to a range of 0, representing the accumulation observed in cells exposed to vehicle only, and 1, representing cells exposed to 10 μM amiodarone. The maximum accumulation across the dose response of the test compound, where cell viability is >50%, is reported, as is the dose at which this maximum was observed. The lowest dose that caused >50% cell toxicity is also reported. […]

Data set [6] can be described thus: Plasma protein binding (equilibrium dialysis). It is filed as in vitro ADME. The following applies: pH 7.4; human plasma, 37° C., 5 μM compound; read-out: human plasma protein binding (% bound) (converted). As to the method: The extent of plasma protein binding was determined via equilibrium dialysis of a compound between human plasma and aqueous buffer at 37° C., and determination of the concentrations of compound in the plasma and buffer by HPLC-MS/MS.
Dialysis cells (molecular weight cut-off 5000) were prepared by rinsing with water followed by soaking in the dialysis buffer for a minimum of 1 hour. The dialysis buffer was isotonic buffered saline pH 7.4. Stock solutions of compound in dimethylsulfoxide were prepared at a concentration of 0.5 mM.
The stock DMSO solution of compound was added to the plasma at a ratio of 10 μl of DMSO to each ml of plasma. This gave a 1% DMSO in plasma solution with each compound at a concentration of 5 μM.
Dialysis cells were then prepared and one half of the cell filled with 750 μl of dialysis buffer and the other half of the cell with 750 μl of plasma solution of compound. […]
The samples were then analysed using HPLC-MS/MS. […]
The concentration of compound in the samples were determined using MassLynx version 4.1 software (produced by Waters/Micromass) that automatically calculated a calibration curve and interpolated the concentration of compound in the analytes. Plasma protein binding was determined from the measured concentration as the percentage of compound bound in plasma (% bound) using the following equation;
(In equilibrium dialysis free small molecules cross a membrane that holds back macromolecules.)

T3 sequence (Q12809 whole entry): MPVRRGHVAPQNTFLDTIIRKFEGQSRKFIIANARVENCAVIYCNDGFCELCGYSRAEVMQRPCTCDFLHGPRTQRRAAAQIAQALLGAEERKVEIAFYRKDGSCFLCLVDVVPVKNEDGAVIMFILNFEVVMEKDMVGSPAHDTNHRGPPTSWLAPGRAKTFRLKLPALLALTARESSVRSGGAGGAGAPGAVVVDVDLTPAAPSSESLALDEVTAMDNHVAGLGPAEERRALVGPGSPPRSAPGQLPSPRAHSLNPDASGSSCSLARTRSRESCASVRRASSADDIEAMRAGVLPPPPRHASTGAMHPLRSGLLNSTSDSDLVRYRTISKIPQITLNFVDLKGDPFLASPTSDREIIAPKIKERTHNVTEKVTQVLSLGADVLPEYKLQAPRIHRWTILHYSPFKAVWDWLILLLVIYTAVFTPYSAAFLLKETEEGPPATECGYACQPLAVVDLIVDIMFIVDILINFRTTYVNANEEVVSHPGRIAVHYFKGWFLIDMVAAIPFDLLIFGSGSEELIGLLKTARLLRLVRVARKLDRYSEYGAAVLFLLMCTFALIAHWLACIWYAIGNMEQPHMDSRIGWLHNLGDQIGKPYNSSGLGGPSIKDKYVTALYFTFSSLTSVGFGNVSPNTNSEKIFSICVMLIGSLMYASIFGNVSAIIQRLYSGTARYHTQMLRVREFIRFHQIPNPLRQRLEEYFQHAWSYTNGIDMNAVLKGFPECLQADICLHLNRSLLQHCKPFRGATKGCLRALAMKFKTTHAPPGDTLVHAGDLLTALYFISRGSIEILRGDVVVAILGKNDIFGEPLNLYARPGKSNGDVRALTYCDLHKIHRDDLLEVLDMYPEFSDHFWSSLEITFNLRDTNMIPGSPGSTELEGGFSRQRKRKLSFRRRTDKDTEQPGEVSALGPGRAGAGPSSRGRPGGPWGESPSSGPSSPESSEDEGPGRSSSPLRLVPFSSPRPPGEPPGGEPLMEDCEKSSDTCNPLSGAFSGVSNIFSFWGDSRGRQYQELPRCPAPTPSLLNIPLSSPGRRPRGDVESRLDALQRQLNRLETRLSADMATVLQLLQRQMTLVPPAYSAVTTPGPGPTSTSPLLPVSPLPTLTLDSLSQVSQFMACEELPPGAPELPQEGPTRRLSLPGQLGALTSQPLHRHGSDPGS
T2 sequence (Q12809 whole entry): as above

On to `O=C(NCC1(O)CCCCCC1)c1c(Cl)ccc2nc(N3CC[C@H](NCCO)C3)ccc12` [Example 1, 6-Chloro-N-[(1-hydroxycycloheptyl)methyl]-2-{(3S)-3-[(2-hydroxyethyl)amino]-pyrrolidin-1-yl}quinoline-5-carboxamide], for which the melting point was in the range of 138 to 140 °C. Besides, in data set [1] (10^-5M bbATP, antagonist activity, read-out: P2X7 pIC50 (converted)), the IC50 was 3.98 nM. Besides, in data set [1] (bbATP, read-out: P2X7 IC50), the IC50 is at most 5 nM. This molecule displayed an inhibition at 3 h in data set [2] of under 50%. This molecule also registered an IC50 in data set [3] (radioligand competition binding) of over 100000 nM. Moreover, in data set [3], the “P2X7:hERG Ratio” value is recorded as >20,000. Further, in data set [3] (listed as compound according to the present invention), the “P2X7:hERG Ratio” value was > 20,000. This molecule also returned a bioavailability in data set [4] of 14%. This molecule returned a maximum accumulation concentration in data set [5] (dose at which maximum accumulation was observed) of 71 µM. In addition, the minimum toxic concentration in data set [5] (lowest dose that caused >50% cell toxicity) came out at 198 µM. Further, in data set [5] (relative to 10 μM amiodarone control (=1), vehicle = 0, cell viability >50%), the “maximum accumulation (phospholipidosis)” value is recorded as 0.9. In data set [6], the fraction unbound at 5 µM was 0.3.
